From US8557851B2, “Combinations of flupirtine and sodium channel inhibiting substances for treating pains” (MEDA Pharma GmbH & Co. KG, priority 2003, dated 2013) come the findings set out here.

Assay [1] concerns reserpine-induced skeletal muscle rigidity. In words: Muscle-relaxing effect on reserpine-induced muscular rigidity in rats. The note with it: Rattus norvegicus, ip, read-out: ED50, reduction of reserpine-induced skeletal muscle rigidity. In kind it is in vivo, rat (male Sprague-Dawley). As to the method:
Male Sprague-Dawley rats weighing 200-220 g were kept in groups of two under standard conditions (temperature 22° C., humidity 40-60%) without any restriction in food or water. Illumination was provided from 6 a.m. to 6 p.m. The experiments were approved by the local animal health committee which was responsible for the protection and proper use of experimental animals.
The experimental approach has already been described in detail (Nickel et al. Arzn Forsch/Drug Res 1997; 47:1081-6). In brief, the rigidity of the skeletal muscle was measured by consecutively measuring the resistance of the flexor and extensor muscles which act in opposition when stretching and bending the foot in the joint. The pressure differences which were generated by the movement of the foot were recorded continuously. The signals were analyzed using a PC program which calculated the resistances of the flexor and extensor at the foot over periods of 10 min.
The active compounds were prepared freshly every day and were administered simultaneously i.p. at various doses 16 h after the reserpine injection (2 mg/kg, intraperitoneally).
The statistical analysis of the differences between the calculated and measured values was performed by means of a one-way. ANOVA. Asterisks (*) denote the significant level p<0.01.

The subject of assay [2] is skeletal muscle tone of conscious mice. The assay is described as follows: Skeletal muscle tone in mice in the inclined screen test. In kind it is in vivo, mouse (NMRI). The note with it: Mus musculus, ip, single substance, read-out: ED50, decrease of skeletal muscle tone (inclined screen test). As to the method: NMRI mice weighing 22-24 g were kept in groups of four under standard conditions (temperature 22° C., humidity 40-60%) without any restriction in food and water. Illumination was provided from 6 a.m. to 6 p.m. All the experiments were approved by the local animal health committee which was responsible for the protection and proper use of experimental animals.
What is termed the “30 degrees inclined screen test” (Simiand et al., Arch Int Pharmacodyn Ther 1989; 297:272-85) was used as a pharmacological model which enables predictions to be made regarding muscle-relaxing properties. The inclined screen consists of a wooden frame containing a wire gauze screen which can be inclined at any arbitrary angle (in this present case: […]). The lower part of the screen is located 15 cm above the table. The animals are placed on the inclined screen and their ability to remain on the inclined screen is observed over a period of 30 s. The number of animals which fall from the screen is counted and the proportion it represents of the total number in each group is calculated. The active compounds were prepared freshly every day and were administered simultaneously i.p. at various doses, at 1 h before beginning the experiments, for analyzing the skeletal muscle tone.
The statistical analysis of the differences between the calculated and measured values were performed by means of a one-way ANOVA. […]

As to `Cc1ccc(C(=O)C(C)CN2CCCCC2)cc1` (stereo not shown) [tolperisone], the ED50 in assay [1] was found to be 32.4 mg/kg; in assay [2] it was 51 mg/kg.

Take `CCOC(=O)Nc1ccc(NCc2ccc(F)cc2)nc1N` [flupirtine]: the ED50 in assay [1] worked out at 6.45 mg/kg; in assay [2], 10.8 mg/kg.

By ED50 is commonly meant the dose that gives a 50% effect, or the effect in half of the subjects.
